We go through two compounds from ChEMBL document CHEMBL1136291, “Synthesis of C-8 methanesulphonate substituted pyrrolobenzodiazepines as potential antitumour agents” (2003).

Assay [1] concerns SNB-75. The assay is described as follows: In vitro antitumor activity against human CNS SNB-75 cell line. It is filed as functional.
In assay [2] the test system is CCRF-CEM. Put plainly: In vitro antitumor activity against human leukemia CCRF-CEM cell line. Type of assay: functional.
In assay [3] the test system is OVCAR-4. Put plainly: In vitro antitumor activity against human ovarian OVCAR-4 cell line. Type of assay: functional.
Assay [4] relates to SR. Put plainly: In vitro antitumor activity against human leukemia SR cell line. Type of assay: functional.
Assay [5] relates to SF-539. The assay is described as follows: In vitro antitumor activity against human CNS SF-539 cell line. Type of assay: functional.
The subject of assay [6] is NCI-H23. The assay is described as follows: In vitro antitumor activity against human non-small cell lung NCI-H23 cell line.
The subject of assay [7] is HCT-116. The assay is described as follows: In vitro antitumor activity against human Colon HCT116 cell line. It is filed as functional.
For assay [8], the system named is NCI-H226. Put plainly: In vitro antitumor activity against human non-small cell lung NCI-H226 cell line. Type of assay: functional.
The test system of assay [9] is MDA-MB-231. Put plainly: In vitro antitumor activity against human breast MDA-MB-231/ATCC cell line. Type of assay: functional.
The test system of assay [10] is SW-620. The assay is described as follows: In vitro antitumor activity against human Colon SW-620 cell line. Type of assay: functional.
Assay [11] relates to A498. The assay is described as follows: In vitro antitumor activity against human renal A498 cell line. It is filed as functional.
Assay [12] concerns U-251. The assay is described as follows: In vitro antitumor activity against human CNS U251 cell line. Type of assay: functional.
Assay [13] concerns CAKI-1. Put plainly: In vitro antitumor activity against human renal CAKI-1 cell line. It is filed as functional.
Assay [14] relates to RPMI-8226. The assay is described as follows: In vitro antitumor activity against human leukemia RPMI-8226 cell line. Type of assay: functional.
In assay [15] the test system is ACHN. Put plainly: In vitro antitumor activity against human renal ACHN cell line. It is filed as functional.
The test system of assay [16] is UACC-257. The assay is described as follows: In vitro antitumor activity against human melanoma UACC-257 cell line. It is filed as functional.
Assay [17] relates to OVCAR-3. Put plainly: In vitro antitumor activity against human ovarian OVCAR-3 cell line. Type of assay: functional.
Assay [18] deals with LOX IMVI. The assay is described as follows: In vitro antitumor activity against human melanoma […] cell line. It is filed as functional.
Assay [19] deals with Malme-3M. The assay is described as follows: In vitro antitumor activity against human melanoma MALME-3M cell line. Type of assay: functional.
Assay [20] relates to M14. The assay is described as follows: In vitro antitumor activity against human melanoma M14 cell line. Type of assay: functional.
The subject of assay [21] is NCI/ADR-RES. Put plainly: In vitro antitumor activity against human breast NCI/ADR-RES cell line. Type of assay: functional.
For assay [22], the system named is UO-31. Put plainly: In vitro antitumor activity against human renal UO-31 cell line. It is filed as functional.
Assay [23] relates to UACC-62. The assay is described as follows: In vitro antitumor activity against human melanoma UACC-62 cell line. Type of assay: functional.
Assay [24] concerns TK-10. Put plainly: In vitro antitumor activity against human renal TK-10 cell line. It is filed as functional.
Assay [25] deals with HCT-15. The assay is described as follows: In vitro antitumor activity against human Colon HCT-15 cell line. It is filed as functional.
In assay [26] the test system is 786-0. Put plainly: In vitro antitumor activity against human renal 786-0 cell line. It is filed as functional.
The test system of assay [27] is SK-MEL-5. Put plainly: In vitro antitumor activity against human melanoma SK-MEL-5 cell line. Type of assay: functional.
In assay [28] the test system is NCI-H522. Put plainly: In vitro antitumor activity against human non-small cell lung NCI-H522 cell line. Type of assay: functional.

One may read the GI50 as the concentration at which growth is held to half of that of the control. The low end stands for more potent growth inhibition, the high end for less potent growth inhibition. For `COc1cc2c(cc1OCCCOS(C)(=O)=O)N=C[C@@H]1CCCN1C2=O`, the GI50 came out at 94.7 µM in [1], 52.8 µM in [2], 70.3 µM in [3] and 62.9 µM in assay [4].
Consider `COc1cc2c(cc1OCCOS(C)(=O)=O)N=C[C@@H]1CCCN1C2=O`, for which the GI50 came to 18.6 µM in [5]; 12.2 µM in assay [6]; 18.5 µM in assay [7]; 15.4 µM in [8]; 16.5 µM in assay [9]; 14.6 µM in [10]. Besides, the GI50 in assay [11] turned out to be 17.1 µM; in [12] it was 17.1 µM; in assay [2] it was 14.5 µM; in assay [13] it was 17.7 µM; in assay [14], 12.2 µM; in assay [15], 16 µM. For the same compound, the GI50 is 18.2 µM in assay [16]; 16.3 µM in assay [17]; 15.7 µM in assay [18]; 13.6 µM in assay [19]; 18.7 µM in [20]; 13.5 µM in assay [21]. The GI50 in [22] stood at 15.2 µM; in assay [23] it was 19.4 µM; in [24] it was 18.1 µM; in [25] it was 16.5 µM; in [26], 17 µM; in assay [27], 16.9 µM. For the same compound, the GI50 in [4] came to 11.1 µM; in assay [28] it was 10.9 µM.
